{"source": "patent US11518742B2", "about": "(priority 2020, dated 2022)", "key": {"[1]": {"experiment": "Maximum tolerated dose followed by 7-day repeat-dose toxicology in rats (Study 700040)", "format": "in vivo, rat", "conditions": "both sexes, Sprague-Dawley, rat, in vivo, inhaled or intranasal; single intranasal administration", "experimental": "(§1) The study consisted of 2 parts. […] The doses used in part 1 were 15, 30, 50, 65, and 75 mg/kg. Each subsequent dose was administered following at least 24 hours from the commencement of the previous dose. There were 2 males and 2 females in each dose group.\n(§2) During Phase I, assessments of mortality, clinical signs and body weights were performed. […] The necropsy consisted of an external examination, including reference to all clinically-recorded lesions, as well as a detailed internal examination.\n(§3) During Phase 2, assessments of mortality, clinical signs and body weights were performed. Following dosing, all animals were euthanized and subjected to a necropsy examination on Day 8. The necropsy consisted of an external examination, including reference to all clinically-recorded lesions, as well as a detailed internal examination. Study plan specific tissues/organs were collected and retained, then trimmed and preserved promptly once the animal was euthanized but these were not further examined microscopically."}, "Sprague-Dawley rats": {"test_system": "Sprague-Dawley rats", "experiment": "Maximum tolerated dose followed by 7-day repeat-dose toxicology in rats (Study 700040)", "format": "in vivo, rat", "experimental": "as §1, §2, §3"}, "[2]": {"experiment": "Toxicokinetics, 14-day intranasal study in dogs (Study 62959)", "format": "in vivo", "conditions": "both sexes, Beagle, dog, plasma, inhaled or intranasal, dogs, 14-day intranasal study", "experimental": "Assessments of mortality, clinical signs, olfactory reflex, body weights, food consumption, ophthalmology, and electrocardiograms were performed. In addition, clinical pathology assessments (hematology, coagulation, clinical chemistry and urinalysis) were evaluated once pretreatment and at termination. Blood samples were collected from the jugular vein of all animals on Days 1 and 14, at up to 8 time points relative to treatment, for analysis of test item concentration in plasma and the subsequent calculation of toxicokinetic parameters. Following dosing, the Main animals were euthanized and subjected to a complete necropsy examination on Day 15. […] All Main and Recovery study animals underwent complete necropsy examinations, selected tissues/organs were retained, and microscopic evaluations of a standard set of tissues were performed.\nFor toxicokinetics, a series of 8 blood samples were collected from the jugular vein from all treated animals on each of Days 1 and 14 of the treatment period at 2, 5, 10, 15, 30, and 60 minutes as well as 3 and 8 hours after treatment."}, "[3]": {"test_system": "Chinese hamster ovary (CHO)-K1 cells", "experiment": "In vitro micronucleus test (flow cytometry)", "format": "cell-based", "description": "The treatment with the vehicle/negative and positive controls was concurrently performed."}, "[4]": {"test_system": "Escherichia coli tester strain WP2uvrA", "experiment": "Bacterial Reverse Mutation Test (Ames test), Escherichia coli"}, "[5]": {"test_system": "Salmonella typhimurium tester strains", "experiment": "Bacterial Reverse Mutation Test (Ames test), Salmonella typhimurium"}}}
{"smiles": "COc1ccc2[nH]cc(CCN(C)C)c2c1", "note": "[5MeODMT, 5-methoxy-N,N-dimethyltryptamine]", "values": [{"measurement": "MTD at 14 days", "setting": "[1]", "value": 75, "unit": "mg/kg"}, {"measurement": "Body weight gain", "setting": "Sprague-Dawley rats; 75 mg/kg for 7 consecutive days", "value": "slightly suppressed for both sexes"}, {"measurement": "Tolerability, 7 consecutive days", "setting": "Sprague-Dawley rats; 75 mg/kg once daily intranasal", "value": "tolerated"}, {"measurement": "Tolerability, single intranasal administration", "setting": "Sprague-Dawley rats; dose levels up to 75 mg/kg", "value": "tolerated"}, {"measurement": "Mortality and gross pathology", "setting": "Sprague-Dawley rats; single dose 15, 30, 50, 65, 75 mg/kg", "value": "no mortality and gross pathology findings at any dose"}, {"measurement": "Tmax", "setting": "[2]", "value": "3 to 14", "unit": "min"}, {"measurement": "half-life", "setting": "[2]; read-out: apparent elimination half-lives", "value": "19 to 95", "unit": "min"}, {"measurement": "Chromosome-damaging potential (conclusion)", "setting": "[3]", "value": "no chromosome-damaging potential"}, {"measurement": "Micronuclei or hypodiploid cells", "setting": "[3]; all treatment regimens, absence or presence of S9", "value": "did not induce any increases in micronuclei or hypodiploid cells"}, {"measurement": "Cytotoxicity or precipitation", "setting": "[3]; up to the maximal dose level of 300 μg/mL", "value": "No cytotoxicity or precipitation"}, {"measurement": "Cytotoxicity", "setting": "[4]; E. coli strain, absence or presence of S9 mix", "value": "No cytotoxicity"}, {"measurement": "Mutagenic potential (conclusion)", "setting": "[4]; absence or presence of S9", "value": "no mutagenic potential"}, {"measurement": "Cytotoxicity", "setting": "[5]; 1600 μg/plate, all S. typhimurium strains", "value": "slight cytotoxicity"}, {"measurement": "Repeat test, revertant colonies", "setting": "[5]; TA1537 and TA98, absence of S9 mix, up to 2000 μg/plate", "value": "no increases in the revertant colonies number per plate"}, {"measurement": "Mutagenic potential (conclusion)", "setting": "[5]; absence or presence of S9", "value": "no mutagenic potential"}]}
